According to publication PMC7038993 (Nucleic Acids Research, 2020):

The molecules below were run against Murine eukaryotic translation initiation factor 4E (eIF4E, residues 28–217); meIF4E (Mus musculus, UniProt P63073) (assay: time-synchronized fluorescence quenching titration).
Type: binding

Chain of Murine eukaryotic translation initiation factor 4E (eIF4E, residues 28–217); meIF4E (P63073 28-217): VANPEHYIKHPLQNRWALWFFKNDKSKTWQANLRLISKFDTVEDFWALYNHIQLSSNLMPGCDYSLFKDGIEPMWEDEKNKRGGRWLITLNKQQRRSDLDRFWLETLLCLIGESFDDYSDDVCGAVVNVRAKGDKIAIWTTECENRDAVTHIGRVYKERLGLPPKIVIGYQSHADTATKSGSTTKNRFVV

`CNc1ncnc2c1ncn2[C@@H]1O[C@H](COP(=O)(O)OP(=O)(O)OP(=O)(O)OC[C@H]2O[C@@H](n3c[n+](C)c4c(=O)[nH]c(N)nc43)[C@H](O)[C@@H]2O)[C@@H](OP(=O)(O)OC[C@H]2O[C@@H](n3cnc4c(=O)[nH]c(N)nc43)[C@H](O)[C@@H]2O)[C@H]1OC` [m^7Gppp^m6AmpG] and `CNc1ncnc2c1ncn2[C@@H]1O[C@H](COP(=O)(O)OP(=O)(O)OP(=O)(O)OC[C@H]2O[C@@H](n3c[n+](C)c4c(=O)[nH]c(N)nc43)[C@H](O)[C@@H]2O)[C@@H](OP(=O)(O)OC[C@H]2O[C@@H](n3cnc4c(=O)[nH]c(N)nc43)[C@H](O)[C@@H]2O)[C@H]1O` [m^7Gppp^m6ApG] are within 1.5-fold of each other in Kd: 32.8 ± 0.8 nM for the first, 35.2 ± 0.8 nM for the second.

`C[n+]1cn([C@@H]2O[C@H](COP(=O)(O)OP(=O)(O)OP(=O)(O)OC[C@H]3O[C@@H](n4cnc5c(N)ncnc54)[C@H](O)[C@@H]3OP(=O)(O)OC[C@H]3O[C@@H](n4cnc5c(=O)[nH]c(N)nc54)[C@H](O)[C@@H]3O)[C@@H](O)[C@H]2O)c2nc(N)[nH]c(=O)c21` [m^7GpppApG] and `C[n+]1cn([C@@H]2O[C@H](COP(=O)(O)OP(=O)(O)OP(=O)(O)OC[C@H]3O[C@@H](n4cnc5c(=O)[nH]c(N)nc54)[C@H](O)[C@@H]3OP(=O)(O)OC[C@H]3O[C@@H](n4cnc5c(=O)[nH]c(N)nc54)[C@H](O)[C@@H]3O)[C@@H](O)[C@H]2O)c2nc(N)[nH]c(=O)c21` [m^7GpppGpG] are within 1.5-fold of each other in Kd: 26.6 ± 0.9 nM for the first, 22.7 ± 0.9 nM for the second.

Compared with `C[n+]1cn([C@@H]2O[C@H](COP(=O)(O)OP(=O)(O)OP(=O)(O)OC[C@H]3O[C@@H](n4cnc5c(N)ncnc54)[C@H](O)[C@@H]3O)[C@@H](O)[C@H]2O)c2nc(N)[nH]c(=O)c21` [m^7GpppA], `C[n+]1cn([C@@H]2O[C@H](COP(=O)(O)OP(=O)(O)OP(=O)(O)OC[C@H]3O[C@@H](n4ccc(N)nc4=O)[C@H](O)[C@@H]3OP(=O)(O)OC[C@H]3O[C@@H](n4cnc5c(=O)[nH]c(N)nc54)[C@H](O)[C@@H]3O)[C@@H](O)[C@H]2O)c2nc(N)[nH]c(=O)c21` [m^7GpppCpG] is 7.1-fold lower in Kd: 178 ± 4.3 nM for the first, 25.1 ± 0.6 nM for the second.

These molecules were tested against eIF4E (28-217) (Mus musculus (murine), UniProt P63073 28-217) (assay: fluorescence quenching titration).
Chain of eIF4E (28-217) (P63073 28-217): as above

First: GGG (XNA, m7G1; 5'-5' triphosphate between G1 and G2; 2'-O-methyl G2) [m7GpppGmpG]
Second: GAG (XNA, m7G1; 5'-5' triphosphate between G1 and A2; 2'-O-methyl A2) [m7GpppAmpG]
The Kd of the first is 2-fold lower: 22.8 ± 0.6 nM for the first, 45.6 ± 1.5 nM for the second. The first binds more tightly here.

In the case of GCG (XNA, m7G1; 5'-5' triphosphate between G1 and C2; 2'-O-methyl C2) [m7GpppCmpG], the Kd is reported as 29.9 ± 0.7 nM.
